From EP0016371A1, “Urea derivatives, process and intermediates for their preparation, medicaments containing such a urea derivative and its therapeutical use” (F. HOFFMANN-LA ROCHE & CO. Aktiengesellschaft, priority 1979, dated 1980) come the findings set out here.

As a reminder, the ED50 is the dose that gives a 50% effect, or the effect in half of the subjects. Read a high ED50 as weaker potency.

Format in all cases: in vivo
Assay [1] concerns Maus. Kind of assay: 3-Mercaptopropionic acid test. Conditions: Mus musculus, 3-Mercaptopropionsäure-Test. The source says: (§1) Bei den oben genannten Versuchen handelt es sich um allgemein bekannte Standardmethoden zur Bestimmung von sedierender und muskelrelaxierender Wirkung.
The test system of assay [2] is Maus. Kind of assay: Chimney test. The following applies: Kamintest, bis zu einer Dosis von 300 mg/kg.
Source text: as §1

For assay [3], the system named is Maus. Kind of assay: Rotating rod test. The following applies: Versuch am Rotierstab, bis zu einer Dosis von 300 mg/kg.
Source text: as §1

The subject of assay [4] is Maus. Kind of assay: Antipentetrazole test. The following applies: Antipentetrazoltest, bis zu einer Dosis von 300 mg/kg.
Source text: as §1

The test system of assay [5] is Maus. Kind of assay: Maximal electroshock test. Conditions: Mus musculus, maximaler Elektroschock. (Protection in the maximal electroshock model is a classic sign of anticonvulsant action.)
The subject of another assay is Füllinsdorfer Ratten. Kind of assay: Conflict test in rats (single-lever Skinner box, food pellet reward combined with foot shock). The following applies: Rattus norvegicus; female rats, by gavage half an hour before the one-hour main test, Wilcoxon test vs. saline pretreatment; read-out: erste signifikant anxiolytisch wirksame Dosis. The protocol:
Die Testapparatur ist eine Eintasten-Skinnerbox mit Futterpillengeber.
Während 3 einstündigen Vorversuchen (an drei verschiedenen Tagen) werden hungrige weibliche Füllinsdorfer Ratten (SPF, 190-230 g) darauf trainiert, die Tast des Futterpillengebers zu drücken, um Futterpillen von je 45 mg zu erhalten (jeder Tastendruck wird belohnt); im dritten Vorversuch erreichen die Ratten eine Rate von 150-200 Tastenbetätigungen pro Stunde.
In einem vierten Vorversuch wird jede durch Tastendruck hervorgerufene Pillenbelohnung mit einem kurzen elektrischen Fuss-Schock (1,0 mA) kombiniert. Die Ratten, welche mit dieser Konflikt-Situation konfrontiert sind, betätigen anfangs noch etwa 5-10mal die Drucktaste und hören dann aus Angst gänzlich auf.
In einem fünften Vorversuch können die Ratten die Taste des Futterpillengebers wieder ohne zusätzlichen Fuss-Schock drücken, wobei wiederum eine Rate von 150-200 Tastenbetätigungen pro Stunde erreicht wird.
In einem sechsten Vorversuch wird eine Selektion der Testtiere durchgeführt. Den Testtieren werden eine halbe Stunde vor Beginn dieses Vorversuches peroral 10 mg/kg Chlordiazepoxid verabreicht; jede Pillenbelohnung wird wiederum mit einem Fuss-Schock kombiniert (Konflikt). Nur Ratten, die in diesem Vorversuch eine Rate von 20-50 Tastenbetätigungen erreichen (vgl. die 5-10 Tastenbetätigungen im vierten Vorversuch) werden als geeignete Testtiere für die Prüfung von potentiellen Anxiolytika behalten. Die Eliminationsrate in diesem Vorversuch beträgt 5%.
Im Hauptversuch werden zur Prüfung der potentiellen Anxiolytika pro Substanz und pro Dosis in der Regel 8 Ratten eingesetzt. Eine unbehandelte Kontrollgruppe ist nicht erforderlich, da jedes Tier als seine eigene Kontrolle dient. Die Testsubstanzen, welche in einem Gemisch von destilliertem Wasser (10 ml) und Tween 80 (2 Tropfen) gelöst oder suspendiert sind, werden den Tieren mit Hilfe einer Schlundsonde eine halbe Stunde vor dem einstündigen Hauptversuch verabreicht. […]

On to `CN1CC(=O)N=C1NC(=O)Nc1csc(Cl)c1` [1-(5-Chlor-3-thienyl)-3-(1-methyl-4-oxo-2-imidazolin-2-yl)harnstoff], for which the ED50 in the assay with Maus [1] was 76 mg/kg; with Maus [5], > 100 mg/kg. Besides, the Aktivität result in the assay on Maus [2], in the assay on Maus [3] and in the assay on Maus [4] was “keinerlei Aktivität” throughout. Besides, the minimal effective dose in the assay with Füllinsdorfer Ratten was 3 mg/kg.

Turning to `CN1CC(=O)N=C1NC(=O)Nc1cccs1` [1-(1-Methyl-4-oxo-2-imidazolin-2-yl)-3-(2-thienyl)harnstoff], the minimal effective dose with Füllinsdorfer Ratten stood at 30 mg/kg.

On to `CN1CC(=O)N=C1NC(=O)Nc1ccsc1` [1-(1-Methyl-4-oxo-2-imidazolin-2-yl)-3-(3-thienyl)harnstoff], for which, in the assay with Füllinsdorfer Ratten, the minimal effective dose came out at 10 mg/kg.
